Earlier results in patent US20060024740A1 (priority 2002, published 2006).

How the values were obtained:
Tapesia acuformis = tested on: Tapesia acuformis; set-up: key: S = Sensitive; R = Resistant
Tapesia yallundae = tested on: Tapesia yallundae; set-up: key: S = Sensitive; R = Resistant

Structure (SMILES)	Fungicide Sensitivity (Tapesia acuformis)	Fungicide Sensitivity (Tapesia yallundae)
COC(=O)Nc1nc2ccccc2[nH]1 [Carbendazim, carbendazim]	S and R	R
Cc1cc(C2CC2)nc(Nc2ccccc2)n1 [Cyprodinil]	S	S
CCCN(CCOc1c(Cl)cc(Cl)cc1Cl)C(=O)n1ccnc1 [Prochloraz]	S and R	R and S
CC(C)(C)C(O)C(Oc1ccc(Cl)cc1)n1cncn1 (centres unmarked) [Triadimenol, triadimenol]	R	R and S
